The test system of test [1] is stable HCV 1a RLuc replicon cells (dicistronic genotype 1a H77 replicon). Kind of test: Renilla luciferase HCV replicon reporter assay, genotype 1a. Particulars: Hepatitis C virus, 72 h, stable 1a H77 RLuc replicon cells. Format: cell-based. The essentials: (§1)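 Cells carrying the stable or transiently transfected (Huh-Lunet) dicistronic RLuc replicons received 3-fold serial compound dilutions from 10 mM DMSO stocks. After 72 h, cells were lysed and Renilla luciferase read. DMSO served as the no-inhibition control and ITMN-191 above 100×EC50 as the positive control; EC50 by non-linear regression.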
For orientation: A replicon is a self-replicating genome or part of one, used to study replication in cells.

In test [2] the test system is stable HCV 2a JFH-1 Rluc replicon cells (L31 present in NS5A). Kind of test: Renilla luciferase HCV replicon reporter assay, genotype 2a JFH-1. In kind it is cell-based. Particulars: Hepatitis C virus. The essentials:
as §1

Test [3] has as its system NS5A chimeric genotype 1b Con1 replicon with genotype 3a S52 strain NS5A gene. Kind of test: Replicon assay, genotype 3a NS5A chimera. Format: cell-based, HCV. As to conditions: Hepatitis C virus.
In test [4] the test system is stable HCV 1b RLuc replicon cells (dicistronic genotype 1b Con1 replicon). Kind of test: Renilla luciferase HCV replicon reporter assay, genotype 1b. Format: cell-based. Particulars: Hepatitis C virus, 72 h, stable 1b Con1 RLuc replicon cells, 72 hours; read-out: 1b. The essentials:
as §1

The subject of test [5] is NS5A chimeric genotype 1b Con1 replicon with genotype 4a ED43 strain NS5A gene. Kind of test: Replicon assay, genotype 4a NS5A chimera. As to conditions: Hepatitis C virus. Format: cell-based, HCV.
For test [6], the system named is NS5A chimeric genotype 2a JFH-1 replicon with genotype 2b MD2b-1 strain NS5A gene (M31 present). Kind of test: Replicon assay, genotype 2b NS5A chimera. Format: cell-based, HCV. Particulars: Hepatitis C virus. The essentials: as §1
In test [7] the test system is Q30R in genotype 1a NS5A (1a Pi-Rluc replicon, Huh-7-derived cured-51 cells). Kind of test: Replicon assay against resistance mutant 1a Q30R. As to conditions: Hepatitis C virus. Format: cell-based, HCV. How it is done:
Antiviral potency (EC50) was determined using a Renilla luciferase (RLuc)-based HCV replicon reporter assay. To perform the assay for genotype 1 and 2a JFH-1, stable HCV 1a RLuc replicon cells (harboring a dicistronic genotype 1a H77 replicon that encodes a RLuc reporter), stable HCV 1b RLuc replicon cells (harboring a dicistronic genotype 1b Con1 replicon that encodes a RLuc reporter), or stable HCV 2a JFH-1 Rluc replicon cells (harboring a dicistronic genotype 2a JFH-1 replicon that encodes a RLuc reporter; with L31 present in NS5A) were dispensed into 384-well plates for EC50 assays. To perform the assay for genotype 2a (with M31 present in NS5A) or 2b, NS5A chimeric genotype 2a JFH-1 replicons that encodes a RLuc-Neo reporter and either genotype 2a J6 strain NS5A gene or genotype 2b MD2b-1 strain NS5A gene (both with M31 present) respectively, were either transiently transfected (t) into Huh-Lunet cells or were established as stably replicating replicon cells (s) is provided. Either cells were dispensed into 384-well plates for EC50 assays. To perform the assay for genotype 3 and 4, NS5A chimeric genotype 1b Con1 replicons that encodes a Pi-RLuc reporter and either genotype 3a S52 strain NS5A gene or genotype 4a ED43 strain NS5A gene respectively, were transiently transfected (t) into Huh-Lunet cells, which were subsequently dispensed into 384-well plates. Compounds were dissolved in DMSO at a concentration of 10 mM and diluted in DMSO either manually or using an automated pipeting instrument. Serially 3-fold diluted compounds were either manually mixed with cell culture media and added to the seeded cells or directly added to the cells using an automated instrument. DMSO was used as a negative (solvent; no inhibition) control, and the protease inhibitor ITMN-191 was included at a concentration>100×EC50 as a positive control. 72 hours later, cells were lysed and Renilla luciferase activity quantified as recommended by the manufacturer (Promega-Madison, Wis.). Non-linear regression was performed to calculate EC50 values.
To determine the antiviral potency (EC50) against resistance mutants, resistance mutations, including M28T, Q30R, Q30H, Q30E, L31M, Y93C, Y93H, and Y93N in genotype 1a NS5A, Y93H and L31V/Y93H in genotype 1b NS5A, and Y93H for in genotype 3a NS5A, were introduced individually into either 1a Pi-Rluc or 1b Pi-Rluc replicons by site directed mutagenesis. Replicon RNA of each resistant mutant was transiently transfected into Huh-7-derived cured-51 cells and antiviral potency was determined on these transfected cells as described above.

Test [8] concerns NS5A chimeric genotype 2a JFH-1 replicon with genotype 2a J6 strain NS5A gene (M31 present). Kind of test: Replicon assay, genotype 2a J6 NS5A chimera. In kind it is cell-based, HCV. As to conditions: Hepatitis C virus. The essentials:
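First, 3-fold serial dilutions of compound went onto replicon cells, DMSO serving as no-inhibition control and ITMN-191 at >100×EC50 as positive control. Next came 72 h incubation, lysis and Renilla luciferase measurement. Finally, EC50 was calculated by non-linear regression; replicons covered genotypes 1a H77, 1b Con1, 2a JFH-1 (L31) and J6-NS5A chimera (M31).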

Where [9] appears, read: read-out: 2a JFH (nM), genotype 2a JFH-1 replicon (L31 in NS5A), stable cells.
Setting [10] is: read-out: 2a JFH, stable 2a JFH-1 Rluc replicon cells, L31 in NS5A, activity range.
The mark [11] stands for this setting: read-out: 3a (s) (nM), genotype 3a NS5A chimeric replicon, stable replicon cells (s).
Setting [12] is: read-out: 3a (s), (s), activity range.
[13] abbreviates: read-out: 4a (s) (nM), genotype 4a NS5A chimeric replicon, stable replicon cells (s).
Setting [14] is: read-out: 4a (s), (s), activity range.
Setting [15] is: 2BS, read-out: 2b (s), stably replicating replicon cells (s), activity range.
Where [16] appears, read: read-out: 2b (s) (nM), genotype 2b MD2b-1 NS5A chimeric replicon (M31), stably replicating replicon cells (s).
The mark [17] stands for this setting: read-out: 2b (t) (nM), genotype 2b MD2b-1 NS5A chimeric replicon (M31), transiently transfected (t).
Setting [18] is: read-out: 2b (t), transiently transfected (t) into Huh-Lunet cells, activity range.
[19] abbreviates: read-out: 2a J6 (t) (nM), genotype 2a J6 NS5A chimeric replicon (M31), transiently transfected (t) into Huh-Lunet cells.
Setting [20] is: read-out: 2a J6 (t), transiently transfected (t) into Huh-Lunet cells, activity range.

Each structure is given as a SMILES string. Where two headings read alike, the source gives them in different places.

In the case of `CC[C@H](C)[C@H](NC(=O)OC)C(=O)N1[C@@H](C)CC[C@H]1c1ncc(-c2ccc3c(c2)COc2cc4c(ccc5nc([C@@H]6CC[C@H](C)N6C(=O)[C@@H](NC(=O)OC)C6CCOCC6)[nH]c54)cc2-3)[nH]1` [GG, Methyl [(2S,3S)-1-{(2S,5S)-2-[5-(2-{(2S,5S)-1-[(2S)-2-[(methoxycarbonyl)amino]-2-(tetrahydro-2H-pyran-4-yl)acetyl]-5-methylpyrrolidin-2-yl}-1,11-dihydroisochromeno[4′,3′:6,7]naphtho[1,2-d]imidazol-9-yl)-1H-imidazol-2-yl]-5-methylpyrrolidin-1-yl}-3-methyl-1-oxopentan-2-yl]carbamate], the EC50 in test [1] was 0.015 nM; in test [1] (activity range), under 0.1 nM; in test [2] (setting [9]), 0.02 nM; in test [2] (setting [10]), under 0.1 nM; in test [3] (setting [11]), 0.038 nM; in test [3] (setting [12]) it was under 0.1 nM. For the same molecule, the EC50 in test [4] was 0.022 nM; in test [5] (setting [13]) it was 0.013 nM; in test [5] (setting [14]), under 0.1 nM; in test [6] (setting [15]), under 0.1 nM; in test [6] (setting [16]), 0.083 nM; in test [6] (setting [17]) it was 0.044 nM. In addition, the values for the EC50 in test [6] (setting [18]), in test [7] (read-out: 1a Q30R) and in test [7] (read-out: 1a Q30R (nM)) were under 0.1 nM, under 0.1 nM and 0.032 nM, respectively.

`COC(=O)N[C@H](C(=O)N1[C@@H](C)CC[C@H]1c1ncc(-c2ccc3c(c2)COc2cc4c(ccc5nc([C@@H]6CC[C@H](C)N6C(=O)[C@@H](NC(=O)OC)[C@@H](C)OC)[nH]c54)cc2-3)[nH]1)C1CCOCC1` [FR, Methyl [(1 S)-2-[(2S,5S)-2-(5-{2-[(2S,5S)-1-{(2S,3R)-3-methoxy-2-[(methoxycarbonyl)amino]butanoyl}-5-methylpyrrolidin-2-yl]-1,11-dihydroisochromeno[4′,3′:6,7]naphtho[1,2-d]imidazol-9-yl}-1H-imidazol-2-yl)-5-methylpyrrolidin-1-yl]-2-oxo-1-(tetrahydro-2H-pyran-4-yl)ethyl]carbamate]: the EC50 in test [1] was 0.026 nM; in test [1] (activity range) it was under 0.1 nM; in test [2] (setting [9]), 0.015 nM; in test [2] (setting [10]), under 0.1 nM; in test [3] (setting [11]) it was 0.031 nM; in test [3] (setting [12]), under 0.1 nM. Further, the EC50 was 0.05 nM in test [4]; under 0.1 nM in test [6] (setting [15]); 0.054 nM in test [6] (setting [16]); under 0.1 nM in test [7] (read-out: 1a Q30R); 0.071 nM in test [7] (read-out: 1a Q30R (nM)).

Turning to `CC[C@H]1CC[C@@H](c2ncc(-c3ccc4c(c3)COc3cc5c(ccc6nc([C@@H]7CC[C@H](C)N7C(=O)[C@@H](NC(=O)OC)[C@@H](C)OC)[nH]c65)cc3-4)[nH]2)N1C(=O)[C@@H](NC(=O)OC)[C@@H](C)OC` [EM, methyl[(2S,3R)-1-{(2S,5S)-2-ethyl-5-[5-(2-{(2S,5S)-1-[N-(methoxycarbonyl)-O-methyl-L-threonyl]-5-methylpyrrolidin-2-yl}-1,11dihydroisochromeno[4′,3′:6,7]naphtho[1,2-d]imidazol-9-yl)-1H-imidazol-2-yl]pyrrolidin-1-yl}-3-methoxy-1-oxobutan-2-yl]carbamate], the EC50 in test [1] was 0.013 nM; in test [1] (activity range) it was under 0.1 nM; in test [2] (setting [9]), 0.012 nM; in test [2] (setting [10]), under 0.1 nM; in test [3] (setting [11]), 0.061 nM; in test [3] (setting [12]) it was under 0.1 nM. The EC50 was 0.02 nM in test [4]; 0.008 nM in test [5] (setting [13]); under 0.1 nM in test [5] (setting [14]); 0.043 nM in test [8] (setting [19]); under 0.1 nM in test [8] (setting [20]); under 0.1 nM in test [6] (setting [15]). The EC50 in test [6] (setting [16]) came out at 0.082 nM.

Regarding `CC[C@H]1CC[C@@H](c2nc3ccc4cc5c(cc4c3[nH]2)OCc2cc(-c3cnc([C@@H]4CC[C@H](C)N4C(=O)[C@@H](NC(=O)OC)C(C)C)[nH]3)ccc2-5)N1C(=O)[C@@H](NC(=O)OC)C1CCOCC1` [EO, methyl[(1 S)-2-[(2S,5S)-2-ethyl-5-(9-{2-[(2S,5S)-1-{(2S)-2 [(methoxycarbonyl)amino]-3-methylbutanoyl}-5-methylpyrrolidin-2-yl]-1H-imidazol-5-yl}-1,11-dihydroisochromeno[4′,3′:6,7]naphtho[1,2-d]imidazol-2-yl)pyrrolidin-1-yl]-2-oxo-1-(tetrahydro-2H-pyran-4-yl)ethyl]carbamate], the EC50 in test [1] is 0.024 nM; in test [1] (activity range), under 0.1 nM; in test [2] (setting [9]), 0.017 nM; in test [2] (setting [10]), under 0.1 nM; in test [3] (setting [11]), 0.054 nM; in test [3] (setting [12]) it was under 0.1 nM. Further, the EC50 in test [4] was 0.04 nM; in test [6] (setting [15]) it was under 0.1 nM; in test [6] (setting [16]), 0.091 nM; in test [6] (setting [17]), 0.038 nM; in test [6] (setting [18]), under 0.1 nM; in test [7] (read-out: 1a Q30R) it was under 0.1 nM. Further, the EC50 in test [7] (read-out: 1a Q30R (nM)) was found to be 0.052 nM.

With `COC(=O)N[C@H](C(=O)N1C[C@H]2C[C@H]2[C@H]1c1ncc(-c2ccc3c(c2)COc2cc4c(ccc5nc([C@@H]6CC[C@H](C)N6C(=O)[C@@H](NC(=O)OC)C(C)C)[nH]c54)cc2-3)[nH]1)C(C)C` [HR], the EC50 in test [1] is 0.015 nM; in test [1] (activity range), under 0.1 nM; in test [2] (setting [9]), 0.022 nM; in test [2] (setting [10]), under 0.1 nM; in test [3] (setting [11]), 0.047 nM; in test [3] (setting [12]), under 0.1 nM. Also, the EC50 in test [4] was 0.024 nM; in test [5] (setting [13]), 0.015 nM; in test [5] (setting [14]), under 0.1 nM; in test [8] (setting [19]), 1.12 nM; in test [8] (setting [20]), 1 to 44 nM; in test [6] (setting [15]) it was 1 to 44 nM. Also, the EC50 in test [6] (setting [16]) was found to be 2.18 nM.

The values above are taken from patent publication US10800789B2, “Antiviral compounds” (Gilead Pharmasset LLC, priority 2012, dated 2020).
